Data reported in ChEMBL document CHEMBL1201862, “PubChem BioAssay data set” (2004).
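Results reflect a 48-hour exposure of cells in 96-well plates to compound at five concentrations. Here, GI50 denotes the concentration required for 50% inhibition of growth.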 Calls of active or inactive are those of the source. No stated cut-off is given here; in the data, active = GI50 up to about 1.1 µM and inactive = higher.

Tests used:
Experiment in all cases: inhibition of tumour cell growth, NCI panel, 48 h
ACHN = system: ACHN
COLO 205 = system: COLO 205
HL-60 = system: HL-60
HOP-92 = system: HOP-92
Hs-578T = system: Hs-578T
IGROV-1 = system: IGROV-1
M14 = system: M14
MCF7 = system: MCF7
Malme-3M = system: Malme-3M
NCI-H226 = system: NCI-H226
OVCAR-5 = system: OVCAR-5
OVCAR-8 = system: OVCAR-8
SF-295 = system: SF-295
SK-MEL-28 = system: SK-MEL-28
SR = system: SR
SW-620 = system: SW-620
T47D = system: T47D
U-251 = system: U-251
PC-3 = system: PC-3
SNB-19 = system: SNB-19

| SMILES | GI50 (ACHN) | GI50 (COLO 205) | GI50 (HL-60) | GI50 (HOP-92) | GI50 (Hs-578T) | GI50 (IGROV-1) | GI50 (M14) | GI50 (MCF7) | GI50 (Malme-3M) | GI50 (NCI-H226) | GI50 (OVCAR-5) | GI50 (OVCAR-8) | GI50 (SF-295) | GI50 (SK-MEL-28) | GI50 (SR) | GI50 (SW-620) | GI50 (T47D) | GI50 (U-251) | GI50 (PC-3) | GI50 (SNB-19) |
| --- | --- | --- | --- | --- | --- | --- | --- | --- | --- | --- | --- | --- | --- | --- | --- | --- | --- | --- | --- | --- |
| O=C(Nc1ccccc1)N1CCNC1=S | > 100 µM (inactive) | > 100 µM (inactive) | > 100 µM (inactive) | > 100 µM (inactive) | 48 µM (inactive) | > 100 µM (inactive) | > 100 µM (inactive) | > 100 µM (inactive) | > 100 µM (inactive) | 87.5 µM (inactive) | > 100 µM (inactive) | > 100 µM (inactive) | > 100 µM (inactive) | > 100 µM (inactive) | 69.2 µM (inactive) | > 100 µM (inactive) | 60.1 µM (inactive) | > 100 µM (inactive) | – | – |
| O=C(c1ccc(Cl)c(Cl)c1)N(C(=S)OC12CC3CC(CC(C3)C1)C2)c1ccccc1 | 34.8 µM (inactive) | 15.9 µM (inactive) | 15.8 µM (inactive) | 31.8 µM (inactive) | 41.3 µM (inactive) | – | 20.8 µM (inactive) | 28 µM (inactive) | 34.9 µM (inactive) | 31.2 µM (inactive) | 18.7 µM (inactive) | 41.5 µM (inactive) | 36.1 µM (inactive) | 44.6 µM (inactive) | – | 35.2 µM (inactive) | 54.6 µM (inactive) | 34.6 µM (inactive) | 39.9 µM (inactive) | 33.3 µM (inactive) |
| COc1cc(/C=C2/SC(c3ccccc3)N(c3cccc(NC(C)=O)c3)C2=O)cc(OC)c1OC (configuration not stated) | > 100 µM (inactive) | 41.9 µM (inactive) | 33.7 µM (inactive) | 85.3 µM (inactive) | 23.9 µM (inactive) | – | 27.7 µM (inactive) | 39.2 µM (inactive) | 28.8 µM (inactive) | 62.5 µM (inactive) | > 100 µM (inactive) | 52.6 µM (inactive) | 58.5 µM (inactive) | 34 µM (inactive) | 23.4 µM (inactive) | 57.1 µM (inactive) | 45.7 µM (inactive) | – | – | 31 µM (inactive) |
| CCOc1ccc(/N=N/C2C(=O)N(C(=O)CC(=O)Nc3ccccc3OC)N=C2C)cc1 (configuration not stated) | > 100 µM (inactive) | > 100 µM (inactive) | 4.17 µM (inactive) | > 32.4 µM (inactive) | 2.85 µM (inactive) | 5.43 µM (inactive) | 25.5 µM (inactive) | 6.61 µM (inactive) | 21.1 µM (inactive) | > 52.1 µM (inactive) | > 100 µM (inactive) | 59.8 µM (inactive) | > 36.6 µM (inactive) | > 100 µM (inactive) | – | 8 µM (inactive) | > 65 µM (inactive) | > 36 µM (inactive) | > 100 µM (inactive) | – |
| CCN(CCO)CC1CCCC2CCCCC21 (configuration not stated) | > 100 µM (inactive) | > 100 µM (inactive) | – | > 100 µM (inactive) | > 100 µM (inactive) | > 100 µM (inactive) | > 100 µM (inactive) | > 100 µM (inactive) | > 100 µM (inactive) | > 100 µM (inactive) | > 100 µM (inactive) | > 100 µM (inactive) | > 100 µM (inactive) | > 100 µM (inactive) | – | > 100 µM (inactive) | > 100 µM (inactive) | > 100 µM (inactive) | > 100 µM (inactive) | > 100 µM (inactive) |
| CC(C)C1CC=NN1C(=O)OC(C)(C)C (configuration not stated) | > 100 µM (inactive) | > 100 µM (inactive) | > 100 µM (inactive) | > 100 µM (inactive) | > 100 µM (inactive) | > 100 µM (inactive) | > 100 µM (inactive) | > 100 µM (inactive) | – | > 100 µM (inactive) | > 100 µM (inactive) | > 100 µM (inactive) | > 100 µM (inactive) | – | > 100 µM (inactive) | > 100 µM (inactive) | > 100 µM (inactive) | – | – | – |
| CCOC(=O)c1c(N)n(-c2ccccc2)c(=O)n(-c2ccccc2)c1=O | > 100 µM (inactive) | > 100 µM (inactive) | > 100 µM (inactive) | > 100 µM (inactive) | > 100 µM (inactive) | > 100 µM (inactive) | > 100 µM (inactive) | > 100 µM (inactive) | > 100 µM (inactive) | > 100 µM (inactive) | > 100 µM (inactive) | > 100 µM (inactive) | > 100 µM (inactive) | > 100 µM (inactive) | > 100 µM (inactive) | > 100 µM (inactive) | > 100 µM (inactive) | > 100 µM (inactive) | – | > 100 µM (inactive) |
| COc1cc(-c2nc(N)c(C#N)c3c2CCS(=O)(=O)c2ccc(C)cc2-3)cc(OC)c1OC | 28.6 µM (inactive) | > 100 µM (inactive) | > 100 µM (inactive) | 9.16 µM (inactive) | 33.8 µM (inactive) | 18.7 µM (inactive) | > 100 µM (inactive) | – | 17.5 µM (inactive) | 9.46 µM (inactive) | > 100 µM (inactive) | 4.98 µM (inactive) | – | > 100 µM (inactive) | > 100 µM (inactive) | > 100 µM (inactive) | 98.2 µM (inactive) | 24.8 µM (inactive) | > 100 µM (inactive) | 7.05 µM (inactive) |
| CC[C@H]1C=CCC[C@@]2(C[C@@H]3CC[C@H]4[C@@H](C(=O)OCCCCCCCCCCCCCCCC(=O)N(CCCNC(C)=O)C[C@H](CCNC(C)=O)OC(C)=O)[C@@]5(CCC[C@@H](C)O5)NC(=[N+]34)N2)O1 | 1.89 µM (inactive) | 1.28 µM (inactive) | 1.14 µM (inactive) | 1.11 µM (active) | 1.93 µM (inactive) | 1.31 µM (inactive) | 1.73 µM (inactive) | 1.46 µM (inactive) | 1.54 µM (inactive) | 1.41 µM (inactive) | 1.51 µM (inactive) | 1.4 µM (inactive) | 1.86 µM (inactive) | 1.28 µM (inactive) | 1.56 µM (inactive) | 1.53 µM (inactive) | – | 0.914 µM (active) | 1.07 µM (active) | 1.62 µM (inactive) |
| CCC(CCCN)Nc1cc(OC)cc2cccnc12 (configuration not stated) | > 100 µM (inactive) | 33.6 µM (inactive) | 21.9 µM (inactive) | > 100 µM (inactive) | > 100 µM (inactive) | 87.3 µM (inactive) | 41.3 µM (inactive) | 29.4 µM (inactive) | 38.7 µM (inactive) | > 100 µM (inactive) | > 100 µM (inactive) | > 100 µM (inactive) | > 100 µM (inactive) | > 100 µM (inactive) | 79.6 µM (inactive) | > 100 µM (inactive) | – | – | > 100 µM (inactive) | > 100 µM (inactive) |
| O=c1[nH]c2ccc([N+](=O)[O-])c(Cl)c2c2ccccc12 | 4.48 µM (inactive) | 5.18 µM (inactive) | 2.35 µM (inactive) | – | 3.86 µM (inactive) | 5.87 µM (inactive) | 4.81 µM (inactive) | 0.258 µM (active) | 11.6 µM (inactive) | 11.5 µM (inactive) | 5.04 µM (inactive) | 1.29 µM (inactive) | 2.62 µM (inactive) | 11 µM (inactive) | 1.85 µM (inactive) | 1.58 µM (inactive) | 19.8 µM (inactive) | 4.43 µM (inactive) | – | 1.91 µM (inactive) |
| COc1cc(C2=C(C)[C@@H]3CN(CC=C3c3ccc(Cl)cc3)C2)c(S(=O)(=O)O)cc1OC | > 100 µM (inactive) | > 100 µM (inactive) | – | > 100 µM (inactive) | > 100 µM (inactive) | > 100 µM (inactive) | > 100 µM (inactive) | – | > 100 µM (inactive) | > 100 µM (inactive) | > 100 µM (inactive) | > 100 µM (inactive) | > 100 µM (inactive) | > 100 µM (inactive) | > 100 µM (inactive) | > 100 µM (inactive) | > 100 µM (inactive) | > 100 µM (inactive) | > 100 µM (inactive) | > 100 µM (inactive) |
| C=C1C(=O)[C@@]23CC[C@@H]4[C@@]5(C)CCC[C@@]4(OC5=O)C2(C)CC[C@]1(OC)C3 (some centres not stated) | 1.77 µM (inactive) | 2.38 µM (inactive) | – | – | 1.96 µM (inactive) | 1.97 µM (inactive) | 1.72 µM (inactive) | 0.255 µM (active) | – | – | 2.06 µM (inactive) | 0.611 µM (active) | 3.4 µM (inactive) | 1.65 µM (inactive) | 0.23 µM (active) | 0.718 µM (active) | 1.39 µM (inactive) | – | 1.05 µM (active) | 1.83 µM (inactive) |
| CCN(CC)C(=S)SS(=O)(=O)c1ccccc1[N+](=O)[O-] | 43.8 µM (inactive) | > 53.5 µM (inactive) | 2.47 µM (inactive) | 24 µM (inactive) | 31.1 µM (inactive) | 0.504 µM (active) | 25 µM (inactive) | – | 10.2 µM (inactive) | > 60 µM (inactive) | > 50.4 µM (inactive) | 22.9 µM (inactive) | 31.8 µM (inactive) | 18.7 µM (inactive) | 0.359 µM (active) | 20.9 µM (inactive) | 28.1 µM (inactive) | 21.7 µM (inactive) | 54.5 µM (inactive) | > 53.7 µM (inactive) |
| CCCCCCCCCCCCCC[C@@H](O)[C@H]1CC[C@H]([C@H]2CC[C@H]([C@H](O)CCCCCC[C@@H](O)CC3=C[C@H](C)OC3=O)O2)O1 | > 25 µM (inactive) | > 25 µM (inactive) | 2.22 µM (inactive) | 3.34 µM (inactive) | 1.63 µM (inactive) | > 25 µM (inactive) | > 25 µM (inactive) | > 15.3 µM (inactive) | > 25 µM (inactive) | > 25 µM (inactive) | > 25 µM (inactive) | 1.75 µM (inactive) | > 25 µM (inactive) | > 25 µM (inactive) | 1.03 µM (active) | > 25 µM (inactive) | – | > 25 µM (inactive) | > 25 µM (inactive) | > 25 µM (inactive) |
